Assay results as given in patent US12234238B2, “Antimicrobial compounds and methods of making and using the same” (BIOVERSYS AG, priority 2017, dated 2025).

Tests used:
[1] = test system: Staphylococcus aureus (S. aureus) 11540 strain; assay: standard microdilution assay to determine minimum inhibitory concentrations (MICs), S. aureus; assay type: cell-based
Method: (§1) The in vitro activity of the compounds of the present disclosure can be determined. Antimicrobial testing is typically performed to determine the minimum inhibitory concentration (MIC). Minimum inhibitory concentrations (MICs) are determined by the microdilution method in a final volume of 100 μl according to protocols outlined by The Clinical and Laboratory Standards Institute (CLSI). Performance standards for reference strains are assessed within the same experimental design to maintain quality control. See, for example, Clinical Laboratory Standards Institute: Methods for dilution antimicrobial susceptibility tests for bacteria that grow aerobically M7-A8. Approved Standard-Eighth Edition. Wayne, PA: CLSI; December 2008: and Clinical Laboratory Standards Institute: Performance Standards for Antimicrobial Susceptibility Testing M100-S20; Approved Standard-Twentieth Edition. Wayne, PA: CLSI; June 2010. The compounds of the present disclosure were tested for antimicrobial activity. The Compounds 1-122 were run against Eschericia coli (E. coli) strain ATCC25922 and against Staphylococcus aureus (S. aureus) 11540 strain using a standard microdilution assay to determine minimum inhibitory concentrations (MICs). […] It will be recognized by one skilled in the art that the compounds can be assessed against other bacterial organisms and that the presentation of data for activity against Eschericia coli and Staphylococcus aureus are illustrative and in no way is intended to limit the scope of the present disclosure. The compounds of the present disclosure can be assayed against a range of other microorganisms depending upon the performance activity desired to be gathered. Furthermore, the “+” and “−” representation and the selection of a cutoff value of 16 micrograms/mL is also illustrative and in no way is intended to limit the scope of the present disclosure.

[2] = test system: Eschericia coli (E. coli) strain ATCC25922; assay: standard microdilution assay to determine minimum inhibitory concentrations (MICs), E. coli; assay type: cell-based; details: Escherichia coli
Method: as §1

Row | SMILES | MIC [1] [µg/mL] | MIC [2] [µg/mL]
1 | N[C@H](CCCc1cc(Cl)c(F)c(-c2cc3cn(-c4ccc([C@@H]5CCC[C@@H](CCSC6=NCCN6)N5)cc4)c(=O)nc3[nH]2)c1)C1CC1 [Compound 3] | ≤ 16 | ≤ 16
2 | C[C@H](N)CCCc1cc(Cl)c(F)c(-c2cc3cn(-c4ccc([C@@H]5CCC[C@@H](CCSC(=N)N)N5CCC5CCOCC5)cc4)c(=O)nc3[nH]2)c1 [Compound 102] | ≤ 16 | ≤ 16
3 | C[C@H](N)Cc1cc(Cl)c(F)c(-c2cc3cn(-c4ccc([C@@H]5CCC[C@@H](CCSC(=N)N)N5)cc4)c(=O)nc3[nH]2)c1 [Compound 23] | ≤ 16 | ≤ 16
4 | C[C@@H](N)CCCN1C[C@@H](O)CC1c1cc2cn(-c3ccc([C@@H]4CCC[C@@H](CCSC(=N)N)N4)cc3)c(=O)nc2[nH]1 (stereo partly shown) [Compound 64] | ≤ 16 | ≤ 16
5 | C[C@H](N)CCCc1cc(Cl)c(F)c(-c2cc3cn(-c4ccc([C@@H]5CC=CCN5CCCSC(=N)N)cc4)c(=O)nc3[nH]2)c1 [Compound 14] | ≤ 16 | ≤ 16
6 | CC(N)c1cc(Cl)c(F)c(-c2cc3cn(-c4ccc([C@@H]5CCC[C@@H](CCSC(=N)N)N5)cc4)c(=O)nc3[nH]2)c1 (stereo partly shown) [Compound 54] | ≤ 16 | ≤ 16
7 | C[C@H](NCC[C@H](C)SC(=N)N)c1ccc(-n2cc3cc(-c4cc(CCC[C@@H](N)C5CC5)cc(Cl)c4F)[nH]c3nc2=O)cc1 [Compound 11] | ≤ 16 | ≤ 16
8 | CC(Br)CCN1[C@H](CCSC(=N)N)CCC[C@H]1c1ccc(-n2cc3cc(-c4cc(CCC[C@H](C)N)cc(Cl)c4F)[nH]c3nc2=O)cc1 (stereo partly shown) [Compound 95] | ≤ 16 | ≤ 16
9 | CN[C@@H]1CC(c2cc3cn(-c4ccc([C@@H]5CCC[C@@H](CCSC(=N)N)N5)cc4)c(=O)nc3[nH]2)N(CCC[C@@H](C)N)C1 (stereo partly shown) [Compound 66] | ≤ 16 | ≤ 16
10 | N=C(N)SCC[C@@H]1CCC[C@@H](c2ccc(-n3cc4cc(-c5cc(CCC[C@@H](N)COC(=O)c6ccccc6)cc(Cl)c5F)[nH]c4nc3=O)cc2)N1 [Compound 10] | ≤ 16 | ≤ 16
11 | CCCN1[C@H](CCSC(=N)N)CCC[C@H]1c1ccc(-n2cc3cc(-c4cc(CCC[C@H](C)N)cc(Cl)c4F)[nH]c3nc2=O)cc1 [Compound 56] | ≤ 16 | ≤ 16
12 | C[C@@H](N)CCCN1C[C@H](N)CC1c1cc2cn(-c3ccc([C@@H]4CCC[C@@H](CCSC(=N)N)N4)cc3)c(=O)nc2[nH]1 (stereo partly shown) [Compound 65] | ≤ 16 | ≤ 16
13 | C[C@@H](N)CCc1cc(Cl)c(F)c(-c2cc3cn(-c4ccc([C@@H]5CCC[C@@H](CCSC(=N)N)N5)cc4)c(=O)nc3[nH]2)c1 [Compound 29] | ≤ 16 | ≤ 16
14 | N=C(N)SCC[C@@H]1CCC[C@@H](c2ccc(-n3cc4cc(C5C[C@@H](OCc6ccccc6)CN5)[nH]c4nc3=O)cc2)N1 (stereo partly shown) [Compound 49] | ≤ 16 | ≤ 16
15 | C[C@H](N)CCCc1cc(Cl)c(F)c(-c2cc3cn(-c4ccc([C@H]5C[C@H](CCSC(=N)N)CCN5C)cc4)c(=O)nc3[nH]2)c1 [Compound 111] | ≤ 16 | ≤ 16
16 | CCc1cc(CCC[C@H](C)N)cc(-c2cc3cn(-c4ccc([C@@H]5CCC[C@@H](CCSC(=N)N)N5)cc4)c(=O)nc3[nH]2)c1 [Compound 87] | ≤ 16 | ≤ 16
17 | C[C@H](N)CCCc1cc(Cl)c(F)c(-c2cc3cn(-c4ccc([C@@H]5CC=C[C@@H](CCSC(=N)N)N5)cc4)c(=O)nc3[nH]2)c1 [Compound 16] | ≤ 16 | ≤ 16
18 | N=C(N)SCCCN1CC=CC[C@H]1c1ccc(-n2cc3cc(-c4cc(CCC[C@@H](N)C5CC5)cc(Cl)c4F)[nH]c3nc2=O)cc1 [Compound 15] | ≤ 16 | ≤ 16
19 | C=C[C@H](N)CCCc1cc(Cl)c(F)c(-c2cc3cn(-c4ccc([C@@H]5CCC[C@@H](CCSC(=N)N)N5C)cc4)c(=O)nc3[nH]2)c1 [Compound 50] | ≤ 16 | ≤ 16
20 | C=CCCN1[C@H](CCSC(=N)N)CCC[C@H]1c1ccc(-n2cc3cc(-c4cc(CCC[C@H](C)N)cc(Cl)c4F)[nH]c3nc2=O)cc1 [Compound 94] | ≤ 16 | ≤ 16
21 | C[C@H](N)CCCc1cc(Cl)c(F)c(-c2cc3cn(-c4ccc([C@@H]5CCC[C@@H](CCSC(=N)N)N5)c(F)c4)c(=O)nc3[nH]2)c1 [Compound 21] | ≤ 16 | ≤ 16
22 | CC(C)CN1[C@H](CCSC(=N)N)CCC[C@H]1c1ccc(-n2cc3cc(-c4cc(CCC[C@H](C)N)cc(Cl)c4F)[nH]c3nc2=O)cc1 [Compound 90] | ≤ 16 | ≤ 16

Row | SMILES | MIC [1] [µg/mL] | MIC [2] [µg/mL]
23 | C[C@@H](O)CNCc1cc(Cl)c(F)c(-c2cc3cn(-c4ccc([C@@H]5CCC[C@@H](CCSC(=N)N)N5)cc4)c(=O)nc3[nH]2)c1 [Compound 38] | ≤ 16 | ≤ 16
24 | N=C(N)SCC[C@@H]1CCC[C@@H](c2ccc(-n3cc4cc(-c5cc(CCC[C@@H](N)COc6ccccc6)cc(Cl)c5F)[nH]c4nc3=O)cc2)N1 [Compound 35] | ≤ 16 | ≤ 16
25 | N=C(N)SCC[C@@H]1CCC[C@@H](c2ccc(-n3cc4cc(-c5cc(CCC[C@@H](N)C6CC6)cc(Cl)c5F)[nH]c4nc3=O)cc2)N1CCCO [Compound 7] | ≤ 16 | ≤ 16
26 | C[C@H](NCCCSC(=N)N)c1ccc(-n2cc3cc(-c4cc(CCC[C@@H](N)C5CC5)cc(Cl)c4F)[nH]c3nc2=O)cc1 [Compound 27] | ≤ 16 | ≤ 16
27 | C[C@H](N)CCCc1cc(Cl)c(F)c(-c2cc3cn(-c4ccc([C@@H]5CCC[C@@H](CCSC6=NCCN6)N5)cc4)c(=O)nc3[nH]2)c1 [Compound 2] | ≤ 16 | ≤ 16
28 | Cc1ccccc1OC[C@H](N)CCCc1cc(Cl)c(F)c(-c2cc3cn(-c4ccc([C@@H]5CCC[C@@H](CCSC(=N)N)N5)cc4)c(=O)nc3[nH]2)c1 [Compound 40] | ≤ 16 | ≤ 16
29 | C=CCN1[C@H](CCSC(=N)N)CCC[C@H]1c1ccc(-n2cc3cc(-c4cc(CCC[C@H](C)N)cc(Cl)c4F)[nH]c3nc2=O)cc1 [Compound 46] | ≤ 16 | ≤ 16
30 | N=C(N)SCC[C@@H]1CCC[C@@H](c2ccc(-n3cc4cc(-c5cc(CCC[C@@H](N)CO)cc(Cl)c5F)[nH]c4nc3=O)cc2F)N1 [Compound 22] | ≤ 16 | ≤ 16
31 | CSC(=N)NCC[C@@H]1CCC[C@@H](c2ccc(-n3cc4cc(-c5cc(CCC[C@H](C)N)cc(Cl)c5F)[nH]c4nc3=O)cc2)N1 [Compound 120] | ≤ 16 | ≤ 16
32 | C[C@H](N)CCCN1CCCCC1c1cc2cn(-c3ccc([C@@H]4CCC[C@@H](CCSC(=N)N)N4)cc3)c(=O)nc2[nH]1 (stereo partly shown) [Compound 33] | ≤ 16 | ≤ 16
33 | C[C@@H](N)Cc1cc(Cl)c(F)c(-c2cc3cn(-c4ccc([C@@H]5CCC[C@@H](CCSC(=N)N)N5)cc4)c(=O)nc3[nH]2)c1 [Compound 24] | ≤ 16 | ≤ 16
34 | COC(=O)CN1[C@H](CCSC(=N)N)CCC[C@H]1c1ccc(-n2cc3cc(-c4cc(CCC[C@H](C)N)cc(Cl)c4F)[nH]c3nc2=O)cc1 [Compound 96] | ≤ 16 | ≤ 16
35 | C[C@H](N)CCCN1CC=C(c2cc3cn(-c4ccc([C@@H]5CCC[C@@H](CCSC(=N)N)N5)cc4)c(=O)nc3[nH]2)C1 [Compound 75] | ≤ 16 | ≤ 16
36 | C[C@H](N)CCCc1cc(Cl)c(F)c(-c2cc3cn(-c4ccc([C@@H]5CCC[C@@H](CCO)N5CCCSC(=N)N)cc4)c(=O)nc3[nH]2)c1 [Compound 17] | ≤ 16 | ≤ 16
37 | C[C@H](O)CCCc1cc(Cl)c(F)c(-c2cc3cn(-c4ccc([C@@H]5CCC[C@@H](CCSC(=N)N)N5)cc4)c(=O)nc3[nH]2)c1 [Compound 28] | ≤ 16 | ≤ 16
38 | C[C@@H]1CNC(c2cc3cn(-c4ccc([C@@H]5CCC[C@@H](CCSC(=N)N)N5)cc4)c(=O)nc3[nH]2)C1 (stereo partly shown) [Compound 61] | ≤ 16 | ≤ 16
39 | N=C(N)SCCCN1[C@H](CCO)CCC[C@H]1c1ccc(-n2cc3cc(-c4cc(CCC[C@@H](N)C5CC5)cc(Cl)c4F)[nH]c3nc2=O)cc1 [Compound 18] | ≤ 16 | ≤ 16
40 | C=C[C@H](N)CCCc1cc(Cl)c(F)c(-c2cc3cn(-c4ccc([C@@H]5CCC[C@@H](CCSC(=N)N)N5)cc4)c(=O)nc3[nH]2)c1 [Compound 45] | ≤ 16 | ≤ 16
41 | C[C@H](N)CCCc1cc(Cl)c(F)c(-c2cc3cn(-c4ccc([C@@H]5CCC(O)[C@@H](CCSC(=N)N)N5C)cc4)c(=O)nc3[nH]2)c1 (stereo partly shown) [Compound 106] | ≤ 16 | ≤ 16
42 | C[C@H](N)CCO[C@H]1CNC(c2cc3cn(-c4ccc([C@@H]5CCC[C@@H](CCSC(=N)N)N5)cc4)c(=O)nc3[nH]2)C1 (stereo partly shown) [Compound 47] | ≤ 16 | ≤ 16
43 | C[C@H](N)CCCc1cc(Cl)c(F)c(-c2cc3cn(-c4ccc([C@@H]5CCC[C@@H](CCSC(=N)N)N5C)cc4)c(=O)nc3[nH]2)c1 [Compound 42] | ≤ 16 | ≤ 16
44 | CNC(=N)SCC[C@@H]1CCC[C@@H](c2ccc(-n3cc4cc(-c5cc(CCC[C@H](C)N)cc(Cl)c5F)[nH]c4nc3=O)cc2)N1 [Compound 41] | ≤ 16 | ≤ 16
